Converted amounts (≈) assume the structure as drawn.

In the test the test system is Bacillus subtilis 168CA. Nature of the test: Minimum Inhibitory Concentration (MIC) testing, broth microdilution, Bacillus subtilis. The conditions noted are these: Bacillus subtilis 168CA; read-out: Bacillus subtilis MICs Activity. The class given is cell-based. On the procedure:
Compounds of this invention were tested for antimicrobial activity by susceptibility testing in liquid media. MICs for compounds against each strain were determined by a broth microdilution method according to the National Committee for Clinical Laboratory Standards (NCCLS) guidelines. (NCCLS. 2000. Methods for dilution antimicrobial susceptibility tests for bacteria that grow aerobically—fifth edition. Approved standard M7-A5. NCCLS, Wayne, Pa.)
Briefly, test compounds are prepared in 100 μl of 1.6% DMSO solution in multiwell plates. Several bacterial colonies from a freshly streaked plate are transferred to an appropriate rich broth, such as Mueller Hinton. The cell suspension is adjusted to an optical density of 0.09 and further diluted 1:100 with warm 2× broth. This cell suspension is dispensed into the wells containing compound solution so that the final volume is 200 μl. The plates are incubated overnight (16-20 hours) at 37° C. and turbidity is scored by eye and quantified spectrophotometrically. The MIC is defined as the lowest concentration inhibiting visible growth.
Activities were scored as ‘A’ if the MIC was ≦8 micrograms/ml, ‘B’ if the MIC was 16 to 64 micrograms/ml and ‘C’ if the MIC was greater than 64 micrograms/ml.
For orientation: Broth dilution looks for growth in wells or tubes with falling amounts of substance.

`CCOC(=O)CCCCCOc1cccc(C(N)=O)c1` [Example 37, Ethyl 6-[3-(aminocarbonyl)phenoxy]hexanoate]: the MIC is over 64 µg/mL. As for `COc1ccc(-c2noc(COc3ccc(F)c(C(N)=O)c3F)n2)c(OC)c1` [Example 261, 3-[3-(2,4-Dimethoxyphenyl)-1,2,4-oxadiazol-5-yl]methoxy-2,6-difluorobenzenecarboxamide], the figure is 16 to 64 µg/mL (≈ 40.9 to 164 µM); as for `C=C(C)COc1cccc(C(N)=O)c1` [Example 11, 3-[(2-Methyl-2-propenyl)oxy]benzenecarboxamide], over 64 µg/mL. As for `NC(=O)c1c(F)ccc(OCc2nc(-c3ccccc3O)no2)c1F` [Example 253, 2,6-Difluoro-3-[3-(2-hydroxyphenyl)-1,2,4-oxadiazol-5-yl]methoxybenzenecarboxamide], the figure is 16 to 64 µg/mL (≈ 46.1 to 184 µM). As for `CC(C)CCCCOc1cccc(C(N)=O)c1` [Example 22, 3-[(5-Methylhexyl)oxy]benzenecarboxamide], the figure is 16 to 64 µg/mL (≈ 68 to 272 µM); as for `NC(=O)c1cccc(OCc2ccc3ccccc3n2)c1` [Example 23, 3-(2-Quinolinylmethoxy)benzenecarboxamide], 16 to 64 µg/mL (≈ 57.5 to 230 µM); as for `Cc1sc(-c2ccccc2)nc1CCCOc1ccc(F)c(C(N)=O)c1F` [Example 160, 2,6-Difluoro-3-[3-(5-methyl-2-phenyl-thiazol-4-yl)-propoxy]-benzamide], under 8 µg/mL. On to `NC(=O)c1cccc(OCCCCOc2ccccc2)c1` [Example 10, 3-(4-Phenoxybutoxy)benzenecarboxamide], for which the MIC was under 8 µg/mL. Take `NC(=O)c1c(F)ccc(OCc2nc(-c3ccc(Cl)c([N+](=O)[O-])c3)no2)c1F` [Example 329, 3-[3-(4-Chloro-3-nitro-phenyl)-[1,2,4]oxadiazol-5-ylmethoxy]-2,6-difluoro-benzamide]: the MIC is under 8 µg/mL. Regarding `NC(=O)c1c(F)ccc(OCc2ccc3cccc(Cl)c3n2)c1F` [Example 112, 3-(8-Chloro-quinolin-2-ylmethoxy)-2,6-difluoro-benzamide], the MIC was under 8 µg/mL. As for `NC(=O)c1cccc(OCCCCC2CCCCC2)c1` [Example 44, 3-(4-Cyclohexylbutoxy)benzenecarboxamide], the figure is under 8 µg/mL; as for `CCCOc1cccc(C(N)=O)c1` [Example 2, 3-Propoxybenzenecarboxamide], over 64 µg/mL. As for `NC(=O)c1cccc(OCCCCc2ccccc2)c1` [Example 20, 3-(4-Phenylbutoxy)benzenecarboxamide], the figure is under 8 µg/mL; as for `COC(=O)CCCCCCCCCOc1cccc(C(N)=O)c1` [Example 38, Methyl 10-[3-(aminocarbonyl)phenoxy]decanoate], under 8 µg/mL. As for `COc1ccc(CCOc2cccc(C(N)=O)c2)cc1` [Example 35, 3-[(4-Methoxyphenethyl)oxy]benzenecarboxamide], the figure is 16 to 64 µg/mL (≈ 59 to 236 µM); as for `NC(=O)c1c(F)ccc(OCc2cccc(OCc3ccccc3)c2)c1F` [Example 154, 3-(3-Benzyloxy-benzyloxy)-2,6-difluoro-benzamide], under 8 µg/mL; as for `NC(=O)c1c(F)ccc(OCc2ccc3cccnc3c2)c1F` [Example 330, 2,6-Difluoro-3-(quinolin-7-ylmethoxy)-benzamide], 16 to 64 µg/mL (≈ 50.9 to 204 µM). Regarding `COc1cc(-c2noc(COc3ccc(F)c(C(N)=O)c3F)n2)ccc1OC(F)F` [Example 328, 3-[3-(4-Difluoromethoxy-3-methoxy-phenyl)-[1,2,4]oxadiazol-5-ylmethoxy]-2,6-difluoro-benzamide], the MIC is under 8 µg/mL. On to `NC(=O)c1c(F)ccc(OCc2ccc3cc(Cl)ccc3n2)c1F` [Example 110, 3-(6-Chloro-quinolin-2-ylmethoxy)-2,6-difluoro-benzamide], for which the MIC is under 8 µg/mL. As for `CC(C)Oc1cccc(C(N)=O)c1` [Example 3, 3-Isopropoxybenzenecarboxamide], the figure is over 64 µg/mL. As for `COCCOc1cccc(C(N)=O)c1` [Example 9, 3-(2-Methoxyethoxy)benzenecarboxamide], the figure is over 64 µg/mL.
